Values joined by “and” are separate entries in the source; they are usually repeats but may differ in a detail not shown here. Identical values can stand only once.
Columns and labels:
[1] = tested on: PopE-F10 M-833 resistant clone (PfSTART1 N330K); test: Growth inhibition assay (72 h, LDH activity); format: cell-based, Plasmodium falciparum
Experimental: The drug was then removed, and parasites were allowed to recover. Another cycle of drug treatment (3 μM M-833) was then resumed. The resistant lines were cloned out by limiting dilution (diluting the culture into a 96-well plate to achieve an average of ~0.3 parasites per well), prior to growth inhibition assays and genomic DNA (gDNA) extraction (DNeasy Blood and Tissue kit (Qiagen)[18].
(§1) Parasite growth assays with inhibitory compounds were performed as per[11] and are fully described in the Supplementary Information. […]
(§2) Growth inhibition assays. Synchronised ring-stage parasites (0.3-0.6% parasitemia, 2% haematocrit) were grown for 72 h in a serial-dilution of the compound under […]
(§3) and compound 4. Note that M-833 was first purchased from MolPort (MolPort -002-267-916) then made in-house at WEHI: the differences observed in EC50s across experiments are attributed to the different batches of M -833. For some experiments, 0, 0.25 or 2.5 mM of glucosamine (GlcN) was also added. Experiments were set up in technical duplicates or triplicates. Following a freeze -thaw cycle, lactate dehydrogenase (LDH) activity was assessed as an indicator of parasite growt h 5. 30 μL of parasite culture was incubated for 30 min in the dark with 75 μL Malstat mixture (0.1 M Tris pH 9.0, 20 g/L lactic acid, pH 7.5, 0.2% Triton-X100, 0.5 g/L acetylpyridine adenine dinucleotide (APAD, Sigma), 200 μg/mL nitroblue tetrazolium (NBT; Sigma), 1 μg/mL phenozine ethosulfate (PES; Sigma)). Absorbance was then measured at 650 nm, transformed using the formula below, plotted against the logarithm of the concentrations, and a non-linear regression (log(inhibitor) vs. response, variable slope) was calculated using GraphPad Prism to assess the half-inhibitory […]
(§4) Growth inhibition % = (1 − average(sample)− average(uRBC)) ∗ 100 […]
(§5) The DMSO samples were also used to assess growth of parasite in the presence of 0.25 and 2.5 mM GlcN (normalised by DMSO in 0 mM GlcN). […]

[2] = tested on: 3D7 P. falciparum parasites; test: Growth inhibition assay (72 h, LDH activity); format: cell-based, Plasmodium falciparum; conditions: for NORMALISED (growth inhibition, LDH absorbance vs DMSO and uRBC): 3D7, 0 mM GlcN; for NORMALISED (growth inhibition, LDH absorbance): 3D7
Experimental: as §1, §2, §3, §4, §5

CC(C)(Nc1ccc(Cl)c(S(=O)(=O)N2CCOCC2)c1)C(=O)Nc1ccc(F)c(Cl)c1 [W-991]
EC50 ([1]; Plasmodium falciparum, 72 h, Supplementary Table 1, PopE-F10 (N330K), 72 h, read-out: EC50): > 200 nM
resistance of the line compared with 3D7 ([1]; PopE-F10 (N330K), Fig 4B): highly resistant
(av-uRBC) / (DMSO-uRBC) x100 ([1]; PopE-F10, 0.0762079 nM, biological replicate 1): 96.1179
(av-uRBC) / (DMSO-uRBC) x100 ([1]; PopE-F10, 0.0762079 nM, biological replicate 2): 104.725
(av-uRBC) / (DMSO-uRBC) x100 ([1]; PopE-F10, 0.0762079 nM, biological replicate 3): 92.7129
(av-uRBC) / (DMSO-uRBC) x100 ([1]; PopE-F10, 0.228624 nM, biological replicate 1): 102.983
(av-uRBC) / (DMSO-uRBC) x100 ([1]; PopE-F10, 0.228624 nM, biological replicate 2): 105.368
(av-uRBC) / (DMSO-uRBC) x100 ([1]; PopE-F10, 0.228624 nM, biological replicate 3): 109.575
(av-uRBC) / (DMSO-uRBC) x100 ([1]; PopE-F10, 0.685871 nM, biological replicate 1): 97.996
(av-uRBC) / (DMSO-uRBC) x100 ([1]; PopE-F10, 0.685871 nM, biological replicate 2): 105.748
(av-uRBC) / (DMSO-uRBC) x100 ([1]; PopE-F10, 0.685871 nM, biological replicate 3): 95.4244
(av-uRBC) / (DMSO-uRBC) x100 ([1]; PopE-F10, 2.05761 nM, biological replicate 1): 96.037
(av-uRBC) / (DMSO-uRBC) x100 ([1]; PopE-F10, 2.05761 nM, biological replicate 2): 105.199
(av-uRBC) / (DMSO-uRBC) x100 ([1]; PopE-F10, 2.05761 nM, biological replicate 3): 105.366
(av-uRBC) / (DMSO-uRBC) x100 ([1]; PopE-F10, 6.17284 nM, biological replicate 1): 97.8882
(av-uRBC) / (DMSO-uRBC) x100 ([1]; PopE-F10, 6.17284 nM, biological replicate 2): 105.604
(av-uRBC) / (DMSO-uRBC) x100 ([1]; PopE-F10, 6.17284 nM, biological replicate 3): 97.9523
(av-uRBC) / (DMSO-uRBC) x100 ([1]; PopE-F10, 18.5185 nM, biological replicate 1): 96.9806
(av-uRBC) / (DMSO-uRBC) x100 ([1]; PopE-F10, 18.5185 nM, biological replicate 2): 104.615
(av-uRBC) / (DMSO-uRBC) x100 ([1]; PopE-F10, 18.5185 nM, biological replicate 3): 86.3579
(av-uRBC) / (DMSO-uRBC) x100 ([1]; PopE-F10, 55.5556 nM, biological replicate 1): 92.6042
(av-uRBC) / (DMSO-uRBC) x100 ([1]; PopE-F10, 55.5556 nM, biological replicate 2): 99.4928
(av-uRBC) / (DMSO-uRBC) x100 ([1]; PopE-F10, 55.5556 nM, biological replicate 3): 87.996
(av-uRBC) / (DMSO-uRBC) x100 ([1]; PopE-F10, 166.667 nM, biological replicate 1): 76.4288
(av-uRBC) / (DMSO-uRBC) x100 ([1]; PopE-F10, 166.667 nM, biological replicate 2): 88.6391
(av-uRBC) / (DMSO-uRBC) x100 ([1]; PopE-F10, 166.667 nM, biological replicate 3): 66.2195
(av-uRBC) / (DMSO-uRBC) x100 ([1]; PopE-F10, 500 nM, biological replicate 1): 33.5999
(av-uRBC) / (DMSO-uRBC) x100 ([1]; PopE-F10, 500 nM, biological replicate 2): 49.6703
(av-uRBC) / (DMSO-uRBC) x100 ([1]; PopE-F10, 500 nM, biological replicate 3): 27.1431
Fold change compared to 3D7 ([1]; Supplementary Table 1, EC50 on PopE-F10 vs 3D7): > 278 fold
NORMALISED (growth inhibition, LDH absorbance vs DMSO and uRBC) ([2]; W991 at 0.137174 nM): 9.0099 and 4.6722
NORMALISED (growth inhibition, LDH absorbance vs DMSO and uRBC) ([2]; W991 at 0.411523 nM): 30.495 and 19.7030
NORMALISED (growth inhibition, LDH absorbance vs DMSO and uRBC) ([2]; W991 at 1.23457 nM): 67.3267 and 60.8717
NORMALISED (growth inhibition, LDH absorbance vs DMSO and uRBC) ([2]; W991 at 3.7037 nM): 88.9109 and 93.8187
NORMALISED (growth inhibition, LDH absorbance vs DMSO and uRBC) ([2]; W991 at 11.1111 nM): 90.3465 and 96.7162
NORMALISED (growth inhibition, LDH absorbance vs DMSO and uRBC) ([2]; W991 at 33.3333 nM): 89.8515 and 96.9697
NORMALISED (growth inhibition, LDH absorbance vs DMSO and uRBC) ([2]; W991 at 100 nM): 92.3267 and 97.2232
NORMALISED (growth inhibition, LDH absorbance) ([2]; 0.25 mM GlcN, dilution point 1 of 10, starting concentration 100 nM): 97.1868
NORMALISED (growth inhibition, LDH absorbance) ([2]; 0.25 mM GlcN, dilution point 2 of 10 from starting concentration 100 nM): 96.6100
NORMALISED (growth inhibition, LDH absorbance) ([2]; 0.25 mM GlcN, dilution point 3 of 10 from starting concentration 100 nM): 96.4481
NORMALISED (growth inhibition, LDH absorbance) ([2]; 0.25 mM GlcN, dilution point 4 of 10 from starting concentration 100 nM): 92.3801
NORMALISED (growth inhibition, LDH absorbance) ([2]; 0.25 mM GlcN, dilution point 5 of 10 from starting concentration 100 nM): 74.4235 and 44.8087
NORMALISED (growth inhibition, LDH absorbance) ([2]; 2.5 mM GlcN, dilution point 1 of 10, starting concentration 100 nM): 96.9212
NORMALISED (growth inhibition, LDH absorbance) ([2]; 2.5 mM GlcN, dilution point 2 of 10 from starting concentration 100 nM): 96.2021
NORMALISED (growth inhibition, LDH absorbance) ([2]; 2.5 mM GlcN, dilution point 3 of 10 from starting concentration 100 nM): 95.7667
NORMALISED (growth inhibition, LDH absorbance) ([2]; 2.5 mM GlcN, dilution point 4 of 10 from starting concentration 100 nM): 92.5258

— article PMC11189555, “Aryl amino acetamides prevent Plasmodium falciparum ring development via targeting the lipid-transfer protein PfSTART1” (Nature Communications, 2024)
